A word on the Kd: it is the equilibrium constant for the complex coming apart. The low end stands for higher affinity, the high end for lower affinity.

We go through 22 compounds from patent US20110288116A1, “IAP INHIBITORS” (TETRALOGIC PHARMACEUITCAL CORPORATION, priority 2008, published 2011).

For this assay, the target named is T1, cIAP-1 BIR-3 (Homo sapiens, UniProt Q13490).
T1 construct: "cIAP-1 BIR-3"
The assay is described as follows: Fluorescence polarization binding to cIAP-1 BIR-3 (competition with AbuRPF-K(5-Fam)-NH2). Conditions: cells marked (cIAP-1): cIAP-1 BIR-3; reported as range class. The method, then: The binding affinities of the compounds are reported as a Kd value. Briefly, various concentrations of test peptides were mixed with 5 nM of the fluorescently labeled peptide (i.e., a mutated N-terminal Smac peptide—AbuRPF-K(5-Fam)-NH2) and 40 nM of the BIR3 for 15 min at RT in […] of 0.1M Potassium Phosphate buffer, pH 7.5 containing […] bovine g-globulin. Following incubation, the polarization values (mP) were measured on a Victor2V (available from PerkinElmer Life Sciences) using a 485 nm excitation filter and a 520 nm emission filter. The reported Kd values are supplied as ranges (A=<0.1 μM, B=0.1 μM to C=>1 μM to 10 μM, D=>10 μM) and, unless otherwise indicated, are the Kd for XIAP BIR-3.

Bounds are passed on as bounds.

T1 sequence (Q13490 266-343 limits assumed): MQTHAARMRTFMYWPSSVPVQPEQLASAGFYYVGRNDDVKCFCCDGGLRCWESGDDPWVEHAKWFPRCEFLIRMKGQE

In turn, `CC[C@H](NC)C(=O)N[C@H](C(=O)N1CC[C@@H](O)[C@H]1Cc1c[nH]c2ccccc12)C(C)C` [UU′] showed a Kd of under 0.1 µM.

`CC[C@H](NC)C(=O)N[C@H](C(=O)N1CC[C@H](OC)[C@H]1Cc1c(Cl)[nH]c2cc(F)ccc12)C(C)C` [V′] gave a Kd of over 0.1 µM.

Compound `CN[C@@H](C)C(=O)N[C@H](C(=O)N1C[C@@H](O)C[C@H]1C[C@H]1CN(C(C)=O)c2ccccc21)[C@@H](C)OC` [WWW] gave a Kd of over 0.1 µM.

For `CCN[C@@H](C)C(=O)N[C@H](C(=O)N1CC[C@@H](O)[C@H]1Cc1c[nH]c2ccccc12)[C@@H](C)O` [DD′], the Kd is under 0.1 µM.

`CN[C@@H](C)C(=O)N[C@H](C(=O)N1CC[C@@H](O)[C@H]1Cc1c[nH]c2ccccc12)C1CC1` [VV′] came in with a dissociation constant (Kd) of under 0.1 µM.

In turn, `CN[C@@H](C)C(=O)N[C@H](C(=O)N1CC[C@@H](O)[C@H]1Cc1c[nH]c2ccccc12)C(C)(C)C` [PP′] came in with a dissociation constant Kd of under 0.1 µM. As for `CCN[C@@H](C)C(=O)N[C@H](C(=O)N1CC[C@@H](O)[C@H]1Cc1c(-c2ccc(F)cc2)[nH]c2ccccc12)[C@@H](C)O` [CCC], the Kd was under 0.1 µM. For the compound `CN[C@@H](C)C(=O)N[C@H](C(=O)N1C[C@@H](O)C[C@H]1C(=O)c1c[nH]c2cc(F)ccc12)C(C)(C)C` [PPP, N-{1-[2-(6-Fluoro-1H-indole-3-carbonyl)-4-hydroxy-pyrrolidine-1-carbonyl]-2,2-dimethyl-propyl}-2-methylamino-propionamide], the Kd was under 0.1 µM. For `CCN[C@@H](C)C(=O)N[C@H](C(=O)N1C[C@@H](O)C[C@H]1C[C@H]1CN(C(C)=O)c2ccc(CC)cc21)C1CCCCC1` [CCCC] the value was over 0.1 µM; for `CC[C@H](NC)C(=O)N[C@H](C(=O)N1CC[C@@H](O)[C@H]1Cc1c[nH]c2ccccc12)C(C)(C)C` [NN′], under 0.1 µM; for `CC[C@H](NC)C(=O)N[C@H](C(=O)N1CC[C@H](O)[C@H]1Cc1c(Cl)[nH]c2cc(F)ccc12)C(C)C` [Z′], under 0.1 µM. `CCN[C@@H](C)C(=O)N[C@H](C(=O)N1CC[C@@H](O)[C@H]1Cc1c[nH]c2ccccc12)C1CCCCC1` [JJ′]: the Kd was under 0.1 µM. For `CN[C@@H](C)C(=O)N[C@H](C(=O)N1CC[C@H](O)[C@H]1Cc1c[nH]c2ncccc12)C(C)(C)C` [Z, N-{1-[3-Hydroxy-2-(1H-pyrrolo[2,3-b]pyridin-3-ylmethyl)-pyrrolidine-1-carbonyl]-2,2-dimethyl-propyl}-2-methylamino-propionamide] the value was under 0.1 µM. For the compound `CCc1ccc2c(c1)[C@@H](C[C@@H]1C[C@H](O)CN1C(=O)[C@@H](NC(=O)[C@H](C)NC)C1CCCCC1)CN2C(C)=O` [BBBB], the Kd was over 0.1 µM. In the case of `CCN[C@@H](C)C(=O)N[C@H](C(=O)N1CC[C@@H](O)[C@H]1Cc1c(-c2ccc(F)cc2)[nH]c2ccccc12)C1CCCCC1` [III], the Kd was under 0.1 µM. `CN[C@@H](C)C(=O)N[C@H](C(=O)N1CCC[C@H]1Cc1cn(C)c2ncccc12)C(C)(C)C` [X] displayed a Kd of under 0.1 µM. For `CCc1ccc2c(c1)[C@H](C[C@@H]1C[C@H](O)CN1C(=O)[C@@H](NC(=O)[C@H](C)NC)[C@@H](C)OC)CN2C(C)=O` [ZZZ], the Kd was under 0.1 µM.

`CN[C@@H](C)C(=O)N[C@H](C(=O)N1C[C@@H](O)C[C@H]1C(=O)c1c[nH]c2cc(F)ccc12)C(C)C` [QQQ] displayed a dissociation constant (Kd) of under 0.1 µM. In turn, `CCN[C@@H](C)C(=O)N[C@H](C(=O)N1CC[C@@H](O)[C@H]1Cc1c(-c2ccc(F)cc2)[nH]c2ccccc12)C(C)C` [ZZ′] showed a Kd of under 0.1 µM. For the compound `CC[C@H](NC)C(=O)N[C@H](C(=O)N1CC[C@H](O)[C@H]1Cc1c(Cl)[nH]c2cc(F)ccc12)[C@@H](C)OC` [BB′], the Kd was under 0.1 µM. In turn, `CCN[C@@H](C)C(=O)N[C@H](C(=O)N1CC[C@H](OC)[C@H]1Cc1c(Cl)[nH]c2cc(F)ccc12)C(C)C` [U′] returned a Kd of over 0.1 µM. For `CCN[C@@H](C)C(=O)N[C@H](C(=O)N1CC[C@H](O)[C@H]1Cc1c[nH]c2ncccc12)C(C)(C)C` [AA] the value was under 0.1 µM.
